# Test results from PubChem BioAssay (NCI).
#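 Grown in 96-well plates, cells were treated for 48 hours with each compound at five concentrations. Insufficient inhibition: endpoint recorded as highest concentration tested. TGI: concentration producing complete growth inhibition.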
# Legend:
# Assay in all cases: NCI-60 cell line screen, 48 h
# PC-3 prostate = tested on: PC-3 prostate
# NCI-H522 lung = tested on: NCI-H522 lung
# OVCAR-4 ovarian = tested on: OVCAR-4 ovarian
# ACHN renal = tested on: ACHN renal
# UO-31 renal = tested on: UO-31 renal
# MDA-MB-435 = tested on: MDA-MB-435
# SF-268 CNS = tested on: SF-268 CNS
# HCC-2998 colon = tested on: HCC-2998 colon
# COLO 205 colon = tested on: COLO 205 colon
# MCF7 breast = tested on: MCF7 breast
# LOX IMVI melanoma = tested on: LOX IMVI melanoma
# NCI-H23 lung = tested on: NCI-H23 lung
# HCT-15 colon = tested on: HCT-15 colon
# TK-10 renal = tested on: TK-10 renal
# NCI-H226 lung = tested on: NCI-H226 lung
# HL-60(TB) leukemia = tested on: HL-60(TB) leukemia
# OVCAR-3 ovarian = tested on: OVCAR-3 ovarian
# HT29 colon = tested on: HT29 colon
# IGROV1 ovarian = tested on: IGROV1 ovarian
# T-47D breast = tested on: T-47D breast
# OVCAR-8 ovarian = tested on: OVCAR-8 ovarian
# NCI-H460 lung = tested on: NCI-H460 lung
# SNB-75 CNS = tested on: SNB-75 CNS
# CAKI-1 renal = tested on: CAKI-1 renal
# HOP-62 NSCLC = tested on: HOP-62 NSCLC
# SNB-19 CNS = tested on: SNB-19 CNS
# SN12C renal = tested on: SN12C renal
# RPMI-8226 leukemia = tested on: RPMI-8226 leukemia
# CCRF-CEM leukemia = tested on: CCRF-CEM leukemia
# UACC-257 melanoma = tested on: UACC-257 melanoma
# MALME-3M melanoma = tested on: MALME-3M melanoma
# UACC-62 melanoma = tested on: UACC-62 melanoma
# A549 NSCLC = tested on: A549 NSCLC
# MOLT-4 leukemia = tested on: MOLT-4 leukemia
# U251 CNS = tested on: U251 CNS
# SR leukemia = tested on: SR leukemia
# RXF 393 renal = tested on: RXF 393 renal
# HCT-116 colon = tested on: HCT-116 colon
# K-562 leukemia = tested on: K-562 leukemia
# NCI/ADR-RES ovarian = tested on: NCI/ADR-RES ovarian
# SW-620 colon = tested on: SW-620 colon
# HS 578T breast = tested on: HS 578T breast
# SK-OV-3 ovarian = tested on: SK-OV-3 ovarian
# KM12 colon = tested on: KM12 colon
# DU-145 prostate = tested on: DU-145 prostate
# A498 renal = tested on: A498 renal
# 786-0 renal = tested on: 786-0 renal
# SK-MEL-5 melanoma = tested on: SK-MEL-5 melanoma
# SK-MEL-2 melanoma = tested on: SK-MEL-2 melanoma
# EKVX NSCLC = tested on: EKVX NSCLC
# SF-295 CNS = tested on: SF-295 CNS
# SK-MEL-28 melanoma = tested on: SK-MEL-28 melanoma
# SF-539 CNS = tested on: SF-539 CNS
smiles,measurement,setting,value
ON=C(CC(O)(C(F)(F)Cl)C(F)(F)Cl)CC(O)(C(F)(F)Cl)C(F)(F)Cl,TGI,PC-3 prostate,> 10 µM
same,TGI,NCI-H522 lung,> 10 µM
same,TGI,OVCAR-4 ovarian,> 10 µM
same,TGI,ACHN renal,> 10 µM
same,TGI,UO-31 renal,> 10 µM
same,TGI,MDA-MB-435,> 10 µM
same,TGI,SF-268 CNS,> 10 µM
same,TGI,HCC-2998 colon,> 10 µM
same,TGI,COLO 205 colon,> 10 µM
same,TGI,MCF7 breast,> 10 µM
same,TGI,LOX IMVI melanoma,> 10 µM
same,TGI,NCI-H23 lung,> 10 µM
same,TGI,HCT-15 colon,> 10 µM
same,TGI,TK-10 renal,> 10 µM
same,TGI,NCI-H226 lung,> 10 µM
same,TGI,HL-60(TB) leukemia,> 10 µM
same,TGI,OVCAR-3 ovarian,> 10 µM
same,TGI,HT29 colon,> 10 µM
same,TGI,IGROV1 ovarian,> 10 µM
same,TGI,T-47D breast,> 10 µM
same,TGI,OVCAR-8 ovarian,> 10 µM
same,TGI,NCI-H460 lung,> 10 µM
same,TGI,SNB-75 CNS,> 10 µM
same,TGI,CAKI-1 renal,> 10 µM
same,TGI,HOP-62 NSCLC,9.78 µM
same,TGI,SNB-19 CNS,> 10 µM
same,TGI,SN12C renal,> 10 µM
same,TGI,RPMI-8226 leukemia,> 10 µM
same,TGI,CCRF-CEM leukemia,> 10 µM
same,TGI,UACC-257 melanoma,> 10 µM
same,TGI,MALME-3M melanoma,> 10 µM
same,TGI,UACC-62 melanoma,> 10 µM
same,TGI,A549 NSCLC,> 10 µM
same,TGI,MOLT-4 leukemia,> 10 µM
same,TGI,U251 CNS,> 10 µM
same,TGI,SR leukemia,> 10 µM
same,TGI,RXF 393 renal,7.79 µM
same,TGI,HCT-116 colon,> 10 µM
same,TGI,K-562 leukemia,> 10 µM
same,TGI,NCI/ADR-RES ovarian,> 10 µM
same,TGI,SW-620 colon,> 10 µM
same,TGI,HS 578T breast,> 10 µM
same,TGI,SK-OV-3 ovarian,> 10 µM
same,TGI,KM12 colon,> 10 µM
same,TGI,DU-145 prostate,> 10 µM
same,TGI,A498 renal,> 10 µM
same,TGI,786-0 renal,> 10 µM
same,TGI,SK-MEL-5 melanoma,> 10 µM
same,TGI,SK-MEL-2 melanoma,7.84 µM
same,TGI,EKVX NSCLC,> 10 µM
same,TGI,SF-295 CNS,> 10 µM
same,TGI,SK-MEL-28 melanoma,> 10 µM
same,TGI,SF-539 CNS,> 10 µM
